Biological target: T1, ERα (Homo sapiens, UniProt P03372)
T1 construct: host or cells: MCF7 cells
T1 sequence (P03372 1-595): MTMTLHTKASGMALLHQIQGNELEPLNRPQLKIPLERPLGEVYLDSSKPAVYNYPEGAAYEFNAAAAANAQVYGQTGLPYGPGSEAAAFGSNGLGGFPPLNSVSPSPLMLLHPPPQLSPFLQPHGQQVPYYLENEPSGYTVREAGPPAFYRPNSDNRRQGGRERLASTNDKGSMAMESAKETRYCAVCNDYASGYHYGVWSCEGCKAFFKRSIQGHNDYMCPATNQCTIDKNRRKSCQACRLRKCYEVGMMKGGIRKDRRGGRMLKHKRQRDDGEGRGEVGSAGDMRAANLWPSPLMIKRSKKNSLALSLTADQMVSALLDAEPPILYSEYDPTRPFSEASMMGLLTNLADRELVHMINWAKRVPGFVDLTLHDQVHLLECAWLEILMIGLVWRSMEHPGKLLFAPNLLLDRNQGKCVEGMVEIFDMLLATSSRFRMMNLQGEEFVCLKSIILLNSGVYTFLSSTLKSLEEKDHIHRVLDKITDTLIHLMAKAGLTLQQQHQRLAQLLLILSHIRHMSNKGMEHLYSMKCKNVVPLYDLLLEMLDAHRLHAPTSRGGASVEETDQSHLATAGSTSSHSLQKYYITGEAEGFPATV
Test: Estrogen receptor degradation activity: breast cancer cell ERα in cell western assay (MCF7 cells)
Assay type: cell-based
Details: 4 hours, final concentrations ranging from 3-0.000018 μM, relative to fulvestrant 0.1 μM positive control
Protocol: Test: Estrogen Receptor Degradation Activity
Said test involves measuring the in vitro degradation activity of the compounds of the invention.
The measurements of the degradation activities were made using a breast cancer cell ERα in cell western assay as described hereunder.
MCF7 cells (ATCC) were seeded in 384 wells microplate (collagen coated) at a concentration of 10000 cells/30 μL, per well in red phenol free MEM alpha medium (invitrogen) containing 5% charcoal dextran striped FBS. The following day, 9 points serial 1:5 dilution of each compound was added to the cells in 2.5 μL at final concentrations ranging either from 3-0.000018 μM (column «% Degradation at 3 μM in table 2) or from 0.3-0.0000018 μM (column «% Degradation at 0.3 μM in table 2), or 0.1 μM for fulvestrant (using as positive control). At 4 hours post compound addition the cells were fixed by adding 25 μL of formalin (final concentration 5% formalin containing 0.1% triton) for 10 minutes at room temperature and then washed twice with PBS. Then, 50 μL of LI-COR blocking buffer containing 0.1% Triton was added to plate for 30 minutes at room temperature. LI-COR blocking buffer was removed and cells were incubated overnight at cold room with 50 μL anti-ER rabbit monoclonal antibody (Thermo scientific MA1-39540) diluted at 1:1000 in LI-COR blocking buffer containing 0.1% tween-20. Wells which were treated with blocking buffer but no antibody were used as background control. Wells were washed twice with PBS (0.1% tween-20) and incubated at 37° C. for 60 minutes in LI-COR (0.1% tween-20) containing goat anti-rabbit antibody Alexa 488 (1:1000) and Syto-64 a DNA dye ([…]). Cells were then washed 3 times in PBS and scanned in ACUMEN explorer (TTP-Labtech). Integrated intensities in the green fluorescence and red fluorescence were measured to determine the levels of ERα and DNA respectively.

Compound | % Degradation At 3 μM
NC(=O)c1ccc2c(c1)CCCC(c1ccc(Cl)cc1Cl)=C2c1ccc(O[C@H]2CCN(CCCF)C2)cc1 [Example 3, (S)-8-(2,4-dichlorophenyl)-9-(4-((1-(3-fluoropropyl)pyrrolidin-3-yl)oxy)phenyl)-6,7-dihydro-5H-benzo[7]annulene-3-carboxamide] | 95%
Oc1cc(-c2ccc3c(c2)CCCC(c2ccc(Cl)cc2Cl)=C3c2ccc(O[C@H]3CCN(CCCF)C3)cc2)on1 [Example 4, (S)-5-(8-(2,4-dichlorophenyl)-9-(4-((1-(3-fluoropropyl)pyrrolidin-3-yl)oxy)phenyl)-6,7-dihydro-5H-benzo[7]annulen-3-yl)isoxazol-3-ol] | 87%
NNC(=O)c1ccc2c(c1)CCCC(c1ccc(Cl)cc1Cl)=C2c1ccc(O[C@H]2CCN(CCCF)C2)cc1 [Example 6, (S)-8-(2,4-dichlorophenyl)-9-(4-((1-(3-fluoropropyl)pyrrolidin-3-yl)oxy)phenyl)-6,7-dihydro-5H-benzo[7]annulene-3-carbohydrazide] | 88%
FCCCN1CC[C@H](Oc2ccc(C3=C(c4ccc(Cl)cc4Cl)CCCc4cc(-c5nncs5)ccc43)cc2)C1 [Example 9, (S)-2-(8-(2,4-dichlorophenyl)-9-(4-((1-(3-fluoropropyl)pyrrolidin-3-yl)oxy)phenyl)-6,7-dihydro-5H-benzo[7]annulen-3-yl)-1,3,4-thiadiazole] | 79%
O=C1CC(c2ccc3c(c2)CCCC(c2ccc(Cl)cc2Cl)=C3c2ccc(O[C@H]3CCN(CCCF)C3)cc2)=NO1 [Example 13, (S)-3-(8-(2,4-dichlorophenyl)-9-(4-((1-(3-fluoropropyl)pyrrolidin-3-yl)oxy)phenyl)-6,7-dihydro-5H-benzo[7]annulen-3-yl)isoxazol-5(4H)-one] | 76%
NC(=O)NNC(=O)c1ccc2c(c1)CCCC(c1ccc(Cl)cc1Cl)=C2c1ccc(O[C@H]2CCN(CCCF)C2)cc1 [Example 14, (S)-2-(8-(2,4-dichlorophenyl)-9-(4-((1-(3-fluoropropyl)pyrrolidin-3-yl)oxy)phenyl)-6,7-dihydro-5H-benzo[7]annulene-3-carbonyl)hydrazine-1-carboxamide] | 90%

Next, values leading:

% Degradation At 3 μM | Compound
86% | CC1(C)OB(c2ccc3c(c2)CCCC(c2ccc(Cl)cc2Cl)=C3c2ccc(O[C@H]3CCN(CCCF)C3)cc2)OC1(C)C [Example 1, (S)-3-(4-(8-(2,4-dichlorophenyl)-3-(4,4,5,5-tetramethyl-1,3,2-dioxaborolan-2-yl)-6,7-dihydro-5H-benzo[7]annulen-9-yl)phenoxy)-1-(3-fluoropropyl)pyrrolidine]
93% | OC(c1ccc2c(c1)CCCC(c1ccc(Cl)cc1Cl)=C2c1ccc(O[C@H]2CCN(CCCF)C2)cc1)C(F)F (stereo partly drawn) [Example 5, 1-(8-(2,4-dichlorophenyl)-9-(4-(((S)-1-(3-fluoropropyl)pyrrolidin-3-yl)oxy)phenyl)-6,7-dihydro-5H-benzo[7]annulen-3-yl)-2,2-difluoroethan-1-ol]
86% | FCCCN1CC[C@H](Oc2ccc(C3=C(c4ccc(Cl)cc4Cl)CCCc4cc(-c5nnco5)ccc43)cc2)C1 [Example 7, (S)-2-(8-(2,4-dichlorophenyl)-9-(4-((1-(3-fluoropropyl)pyrrolidin-3-yl)oxy)phenyl)-6,7-dihydro-5H-benzo[7]annulen-3-yl)-1,3,4-oxadiazole]
92% | OC(c1ccc2c(c1)CCCC(c1ccc(Cl)cc1Cl)=C2c1ccc(O[C@H]2CCN(CCCF)C2)cc1)C(F)(F)F (stereo partly drawn) [Example 10, 1-(8-(2,4-dichlorophenyl)-9-(4-(((S)-1-(3-fluoropropyl)pyrrolidin-3-yl)oxy)phenyl)-6,7-dihydro-5H-benzo[7]annulen-3-yl)-2,2,2-trifluoroethan-1-ol]
83% | O=c1cc(-c2ccc3c(c2)CCCC(c2ccc(Cl)cc2Cl)=C3c2ccc(O[C@H]3CCN(CCCF)C3)cc2)[nH][nH]1 [Example 12, (S)-5-(8-(2,4-dichlorophenyl)-9-(4-((1-(3-fluoropropyl)pyrrolidin-3-yl)oxy)phenyl)-6,7-dihydro-5H-benzo[7]annulen-3-yl)-1,2-dihydro-3H-pyrazol-3-one]
